Test results published in ChEMBL document CHEMBL1649211, “Diversity of beta-lactamases produced by ceftazidime-resistant Pseudomonas aeruginosa isolates causing bloodstream infections in Brazil” (2009).

Tests used:
Type in all cases: functional
Pseudomonas aeruginosa [1] = assay: Antimicrobial activity against ESBL- and MBL-producing and ceftazidime-resistant Pseudomonas aeruginosa isolated from patients with bloodstream infection assessed as resistant isolates by agar dilution method
Pseudomonas aeruginosa [2] = assay: Antimicrobial activity against beta-lactamase-producing Pseudomonas aeruginosa clinical isolate assessed as susceptible isolates by agar dilution method
Pseudomonas aeruginosa [3] = assay: Antimicrobial activity against beta-lactamase-producing Pseudomonas aeruginosa clinical isolate assessed as susceptible isolate by agar dilution method in presence of beta-lactamase inhibitor Tazobactam
Pseudomonas aeruginosa [4] = assay: Antimicrobial activity against beta-lactamase-producing Pseudomonas aeruginosa clinical isolate by agar dilution method
Pseudomonas aeruginosa [5] = assay: Antimicrobial activity against ESBL- and MBL-producing Pseudomonas aeruginosa isolated from patients with bloodstream infection assessed as resistant isolates by agar dilution method
Pseudomonas aeruginosa [6] = assay: Antimicrobial activity against Pseudomonas aeruginosa clinical isolate overexpressing AmpC gene assessed as resistant isolates by agar dilution method

Row | Compound | Activity (Pseudomonas aeruginosa [1]) [%] | Activity (Pseudomonas aeruginosa [2]) [%] | other results
1 | C[C@@H](O)[C@H]1C(=O)N2C(C(=O)O)=C(S[C@@H]3CN[C@H](C(=O)N(C)C)C3)[C@H](C)[C@H]12 [MEROPENEM] | 95 |  | 
2 | COLISTIN |  | 100 | 
3 | NCC[C@H](O)C(=O)N[C@@H]1C[C@H](N)[C@@H](O[C@H]2O[C@H](CN)[C@@H](O)[C@H](O)[C@H]2O)[C@H](O)[C@H]1O[C@H]1O[C@H](CO)[C@@H](O)[C@H](N)[C@H]1O [AMIKACIN] |  | 18.6 | 
4 | CCN1CCN(C(=O)N[C@@H](C(=O)N[C@@H]2C(=O)N3[C@@H]2SC(C)(C)[C@@H]3C(=O)O)c2ccccc2)C(=O)C1=O [PIPERACILLIN] |  | 34.8 | Activity (Pseudomonas aeruginosa [3]): 39.5%; MIC (Pseudomonas aeruginosa [4]): ≤ 16 µg/mL
5 | C[C@@H](O)[C@H]1C(=O)N2C(C(=O)O)=C(SCCNC=N)C[C@H]12 [IMIPENEM ANHYDROUS] | 82 | 18.6 | 
6 | CC(C)(O/N=C(\C(=O)N[C@@H]1C(=O)N2C(C(=O)[O-])=C(C[n+]3ccccc3)CS[C@H]12)c1csc(N)n1)C(=O)O [CEFTAZIDIME] |  |  | Activity (Pseudomonas aeruginosa [5]): 28%; Activity (Pseudomonas aeruginosa [6]): 9.3%
